Assay results reported in patent publication US20240226045A9, “RUMEN-PROTECTED COMPOSITIONS AND METHODS OF MAKING THE SAME” (Balchem Corporation, priority 2022, published 2024).

Experiments:
[1] = Particle size distribution of histidine hydrochloride monohydrate crystals by sieving; format: physicochemical
Description: Histidine hydrochloride monohydrate crystals were sieved on Ro Tap equipment using a stack of US Mesh sieves to obtain a fraction ranging from 850 microns (20 US Mesh) to 250 microns (60 US Mesh) particle size. The fraction was chosen to remove very fine particles, which present a challenge to optimal microencapsulation.

[2] = Methionine pellet pH test; format: physicochemical; details: 2 hours at 39° C.
Method: The pellets were then incubated in a pH 2.0 buffer and a pH 7.0 buffer for 2 hours at 39° C. For comparison, pellets consisting of methionine were also incubated in the buffer solutions. The results are shown in FIG. 10 and in Table 26 below.

| Difference ([1]; Pan, opening size <106 micron) | Final (wt % of total output) ([1]; Pan, opening size <106 micron) | Final (wt % of total output) ([1]; US mesh sieve #20, opening size 850 micron) | Final (wt % of total output) ([1]; US mesh sieve #40, opening size 425 micron) | Final (wt % of total output) ([1]; US mesh sieve #60, opening size 250 micron) | Final (wt % of total output) ([1]; US mesh sieve #80, opening size 180 micron) | Final (wt % of total output) ([1]; US mesh sieve #100, opening size 150 micron) | Final (wt % of total output) ([1]; US mesh sieve #140, opening size 106 micron) | Difference ([1]; retained on US mesh sieve #20, opening size 850 micron) | Difference ([1]; retained on US mesh sieve #40, opening size 425 micron) | Difference ([1]; retained on US mesh sieve #60, opening size 250 micron) | Difference ([1]; retained on US mesh sieve #80, opening size 180 micron) | Difference ([1]; retained on US mesh sieve #100, opening size 150 micron) | Difference ([1]; retained on US mesh sieve #140, opening size 106 micron) | wt % Release ([2]; 0.01M Acid Buffer, pH 2.00) | wt % Release ([2]; 0.05M Phosphate Buffer, pH 7.00) | SMILES |
| --- | --- | --- | --- | --- | --- | --- | --- | --- | --- | --- | --- | --- | --- | --- | --- | --- |
| 7.41 g | 7.4 wt % of total output | 2.6 wt % of total output | 34.8 wt % of total output | 33.9 wt % of total output | 11.9 wt % of total output | 5.3 wt % of total output | 4.1 wt % of total output | 2.60 g | 34.87 g | 33.99 g | 11.88 g | 5.35 g | 4.09 g | – | – | Cl.N[C@@H](Cc1cnc[nH]1)C(=O)O.O |
| – | – | – | – | – | – | – | – | – | – | – | – | – | – | 99 wt % | 99 wt % | CSCC[C@H](N)C(=O)O [Met Reference Standard (99.9% purity)] |
